Measurements taken from patent US9913843B2, “Protein kinase C inhibitors and uses thereof” (Rigel Pharmaceuticals, Inc., priority 2012, dated 2018).
Like-named read-outs stand apart in the source and are kept apart here.

Test system: PKC mediated IL-2 production in human primary T cells
Assay: IL-2 ELISA, human primary T cell, anti CD3+CD28+ (whole cell functional assay for PKC mediated IL-2 production)
Type: cell-based
In short: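 Primary human T cells (PBMC-derived, expanded on plate-bound anti-CD3/CD28 with IL-2, then IL-2-washed) were pre-incubated 1 h at 37 °C with compound, then stimulated on 1 μg/ml anti-CD3 plus 5 μg/ml anti-CD28. After 24 h at 37 °C, secreted IL-2 was measured by ELISA; counter assay used 0.5 ng/ml PMA plus 0.1 μM ionomycin (final).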

[1] = 24 h, human primary T cells stimulated with anti-CD3 + anti-CD28, IL-2 by ELISA, read-out: IC50 for blocking IL-2 production
[2] = human primary T cells stimulated with anti-CD3 + anti-CD28, 24 h, IL-2 by ELISA, 8 pt, read-out: IL2 ELISA, Human primary T cell, anti-CD3 + CD28, 8 pt (IC50)

Structure (SMILES) | IC50 [1] [µM] | IC50 [2] [µM]
Cc1cc(C2CC2)c(-n2nnn(C)c2=O)cc1Nc1ncc(F)c(NC[C@@H]2CCCN3CCCC[C@H]23)n1 [Compound 15, 1-(5-(4-(((1S,9aR)-octahydro-1H-quinolizin-1-yl)methylamino)-5-fluoropyrimidin-2-ylamino)-2-cyclopropyl-4-methylphenyl)-4-methyl-1H-tetrazol-5(4H)-one] | < 30 | 10.7
COc1cc(Nc2ncc(N(C)C)c(NC[C@@H]3CCCN4CCCC[C@H]34)n2)cc(OC)c1 [Compound 96, N4-(((1S,9aR)-octahydro-1H-quinolizin-1-yl)methyl)-N2-(3,5-dimethoxyphenyl)-N5,N5-dimethylpyrimidine-2,4,5-triamine] | < 30 | 4.98
COc1cnc(Nc2cc(-n3nnnc3C)ccc2F)nc1NC[C@@H]1CCCN2CCCC[C@H]12 [Compound 76, N2-(2-fluoro-5-(5-methyl-1H-tetrazol-1-yl)phenyl)-N4-(((1S,9aR)-octahydro-1H-quinolizin-1-yl)methyl)-5-methoxypyrimidine-2,4-diamine] | < 30 | 6.45
COCCOCCOc1cc(F)c(Nc2ncc(C#N)c(NC[C@@H]3CCCN4CCCC[C@H]34)n2)cc1-n1nnn(C)c1=O [Compound 133, 2-((2-fluoro-4-(2-(2-methoxyethoxyl)ethoxy)-5-(4-methyl-5-oxo-4,5-dihydro-1H-tetrazol-1-yl)phenyl)amino)-4-((((1S,9aR)-octahydro-2H-quinolizin-1-yl)methyl)amino)pyrimidine-5-carbonitrile] | < 30 | 0.992
Cc1nnnn1-c1cc(Nc2ncc(C#N)c(NC[C@@H]3CCCN4CCCC[C@H]34)n2)ccc1F [Compound 114, 4-(((1S,9aR)-octahydro-1H-quinolizin-1-yl)methylamino)-2-(4-fluoro-3-(5-methyl-1H-tetrazol-1-yl)phenylamino)pyrimidine-5-carbonitrile] | < 30 | 0.0365

Further lines, results first:

IC50 [1] [µM] | IC50 [2] [µM] | Structure (SMILES)
< 30 | 1.78 | COc1ccc(Nc2ncc(C(N)=O)c(NC[C@@H]3CCCN4CCCC[C@H]34)n2)cc1-n1nnnc1C [Compound 125, 4-(((1S,9aR)-octahydro-1H-quinolizin-1-yl)methylamino)-2-(4-methoxy-3-(5-methyl-1H-tetrazol-1-yl)phenylamino)pyrimidine-5-carboxamide]
< 30 | 0.832 | Cn1nnn(-c2cc(Nc3ncc(Cl)c(NC[C@@H]4CCCN5CCCC[C@H]45)n3)c(F)cc2OC(C)(C)CO)c1=O [Compound 153, 1-(5-((5-chloro-4-((((1S,9aR)-octahydro-2H-quinolizin-1-yl)methyl)amino)pyrimidin-2-yl)amino)-4-fluoro-2-((1-hydroxy-2-methylpropan-2-yl)oxy)phenyl)-4-methyl-1,4-dihydro-5H-tetrazol-5-one]
< 30 | 1.74 | CN(C)c1cnc(Nc2cc(C#N)c(C3CC3)cc2F)nc1NC[C@@H]1CCCN2CCCC[C@H]12 [Compound 95, 5-(4-(((1S,9aR)-octahydro-1H-quinolizin-1-yl)methylamino)-5-(dimethylamino)pyrimidin-2-ylamino)-2-cyclopropyl-4-fluorobenzonitrile]
< 30 | 1.16 | Cc1cnc(Nc2cc(-n3nnnc3C)ccc2F)nc1NC[C@@H]1CCCN2CCCC[C@H]12 [Compound 63, N2-(2-fluoro-5-(5-methyl-1H-tetrazol-1-yl)phenyl)-N4-(((1S,9aR)-octahydro-1H-quinolizin-1-yl)methyl)-5-methylpyrimidine-2,4-diamine]
< 30 | 1.07 | Fc1cnc(Nc2ccc3c(c2)OC(F)(F)C(F)(F)O3)nc1NC[C@@H]1CCCN2CCCC[C@H]12 [Compound 20, 5-fluoro-N2-(2,2,3,3-tetrafluoro-2,3-dihydrobenzo[b][1,4]dioxin-7-yl)-N4-(((1S,9aR)-octahydro-1H-quinolizin-1-yl)methyl)pyrimidine-2,4-diamine]
